Data on 13 molecules can be found in article PMC5914092, “Evaluation of Aldose Reductase, Protein Glycation, and Antioxidant Inhibitory Activities of Bioactive Flavonoids in Matricaria recutita L. and Their Structure-Activity Relationship” (Journal of Diabetes Research, 2018).

“Also recorded” adds a separate entry of the source. Where two headings read alike, the source gives them in different places. Marks after values point to notes of the source that are not given here. Where only a bound is given, the exact number is not on record here.

Assay [1] concerns advanced glycation end products (AGEs). In words: Methylglyoxal-bovine serum albumin assay investigating AGE formation. It is filed as biochemical. The conditions noted are these: methylglyoxal-BSA, 37°C 24 h, mean ± RSD. On the procedure: Bovine serum albumin (50 mg/mL) was incubated with methylglyoxal (100 mM) in sodium phosphate buffer (0.1 M, pH 7.4) in the presence of various concentrations of the compounds (including a control) at 37°C for 24 h. Then the fluorescent intensity was measured at an excitation wavelength of 355 nm and an emission wavelength of 460 nm with a luminescence spectrometer LS50B (PerkinElmer Ltd., Buckinghamshire, England). […] All reagents and samples were sterilized by filtration through […] membrane filters.

Assay [2] in a line: DPPH free radical scavenging capacity. The settings on record: concentrations 15, 30, 75 μg/mL, mean ± RSD. Here is the method:
DPPH, a stable free radical, was used to determine the free radical-scavenging activity of the extracts. Briefly, a 0.32 mM DPPH solution in MeOH were prepared, and 180 μL of this solution was mixed with 30 μL of each sample at concentrations of 0.05–1.0 mg/mL in DMSO. After 20 min of incubation in the dark, the decrease in the absorbance of the solution was measured at 570 nm on a microplate reader (EL800 Universal Microplate reader, Bio-Tek instruments, Winooski, VT, USA). DPPH radical-scavenging activity was expressed as the percentage inhibition (%) of DPPH in this assay system and was calculated as (1 − B/A) × 100, where A and B are the activities of DPPH without and with the test material, respectively.
A general note: DPPH is a stable violet radical that fades when it is reduced.

The subject of assay [3] is sorbitol accumulation in rat lens. In words: Lens culture and intracellular sorbitol measurement (ex vivo, high glucose). It counts as cell-based. The conditions noted are these: for Sorbitol content (mg)/lens wet weight (g): rat lens cultured 6 d in medium with 30 mM glucose, control by G 1.47 ± 0.02; for inhibition at 5 µg/mL: read-out: Inhibition (%) of sorbitol accumulation in rat lens. Here is the method: Lens isolated from 10-week old Sprague-Dawley rats were cultured for 6 d in TC-199 medium containing 15% fetal bovine serum, 100 units/mL penicillin, and 0.1 mg/mL streptomycin, under sterile conditions and an atmosphere of 5% CO2 and 95% air at 37°C. Samples were dissolved in DMSO. The lens were divided into three groups (each group n = 3) and cultured in medium containing 30 mM glucose and RLAR-active compounds. Each lens was placed in a well containing 2.0 mL medium. Sorbitol was identified by HPLC after its derivatization by reaction with benzoic acid to form a fluorescent compound [25].

Assay [4] has as its target T1, rat lens aldose reductase (RLAR) (Rattus norvegicus, UniProt P07943).
T1 construct: The supernatant was collected and used as RLAR; from tissue; host or cells: lens of Sprague-Dawley rats (supernatant of the homogenate after 10,000g)
The conditions noted are these: cited from earlier work; for IC50: compounds isolated from other plant sources, read-out: RLAR inhibitory activity (reported data).

For assay [5], the target named is T1, rat lens aldose reductase (RLAR). In words: Determination of RLAR inhibition (NADPH absorbance decrease at 340 nm, DL-glyceraldehyde substrate). It counts as biochemical. The settings on record: crude RLAR homogenate; inhibitor concentrations 1, 5, 10 μg/mL; mean ± RSD; NI: no inhibition. On the procedure:
Crude RLAR was prepared as follows: lenses were removed from Sprague-Dawley rats (weighing 250–280 g) and frozen at −70°C until use. Noncataractous transparent lenses were pooled and a homogenate was prepared in 0.1 M phosphate buffered saline (pH 6.2). The RLAR homogenate was then centrifuged at 10,000g for 20 min at 4°C in a refrigerated centrifuge. The supernatant was collected and used as RLAR [22].
A total of 531 μL of 0.1 M potassium buffer (pH 7.0), 90 μL of NADPH solution (1.6 mM in potassium buffer), 90 μL of RLAR homogenate (6.5 U/mg), 90 μL of ammonium sulfate solution (4 M in potassium buffer), and 90 μL of DL-glyceraldehyde (25 mM in potassium buffer) were mixed with 9 μL of different concentrations of samples (1–0.1 mg/mL in DMSO, less than 1% in total mixture) in a cuvette, and the activity of RLAR was assessed spectrophotometrically by measuring the decrease in NADPH absorbance at 340 nm for 3 minutes using a spectrophotometer (SECOMAM, Ales Cedex, France).

The mark [6] stands for this setting: concentrations 10, 25, 50 μg/mL, NI: no inhibition.
Setting [7] is: sample 5 μg/mL, mean ± SD (n = 3).
The mark [8] stands for this setting: rat lens cultured in 30 mM glucose, sample 5 μg/mL, mean ± SD (n = 3).

Take `N=C(N)NN` [Aminoguanidine, aminoguanidine, reference compound]: the “IC50 AGEs” value in assay [1] (concentrations 20, 100, 200 μg/mL) is reported as 109.10 ± 3.47^a μg/mL.

Regarding `O=c1cc(-c2ccc(O)cc2)oc2cc(O[C@@H]3O[C@H](CO)[C@@H](O)[C@H](O)[C@H]3O)cc(O)c12` [Compound 1, apigenin-7-O-β-D-glucoside], the IC50 in assay [1] (setting [6]) is more than 97 µM; in assay [2] (NI: no inhibition), more than 250 µM; in assay [4] it was 23 µM. Further, the “Sorbitol content (mg)/lens wet weight (g)” value (“Sorbitol content” for short) in assay [3] (setting [7]) is recorded as 0.72 ± 0.01^c mg/g. Besides, the inhibition – broadly, the relative decrease from the control value, in per cent – at 5 µg/mL in assay [3] (setting [8]) is 51 ± 1.68%.

For the molecule `O=c1cc(-c2ccc(O)c(O)c2)oc2cc(O[C@@H]3O[C@H](CO)[C@@H](O)[C@H](O)[C@H]3O)cc(O)c12` [Compound 2, luteolin-7-O-β-D-glucoside], the values for the IC50 in assay [1] (setting [6]) and in assay [4] were more than 97 µM and 0.99 µM, respectively. Further, the “Sorbitol content” value in assay [3] (setting [7]) is reported as 0.07 ± 0.01^a mg/g. In addition, the inhibition at 5 µg/mL in assay [3] (setting [8]) was 95.2 ± 8.18%.

`COc1cc2oc(-c3ccc(O)cc3)c(OC)c(=O)c2c(O)c1OC` [Compound 3, penduletin]: in assay [5], the IC50 was more than 28 µM and the “IC50 RLAR” value was “inactive; also recorded: did not show inhibitory activities”. For the same molecule, in assay [1] (setting [6]), the IC50 is more than 97 µM and the “IC50 AGEs” value is “did not show inhibitory activities”. Further, in assay [2] (NI: no inhibition), the IC50 is more than 208 µM and the “IC50 DPPH” value is “almost no effect”.

For the molecule `O=C(O)[C@H]1O[C@@H](Oc2cc(O)c3c(=O)cc(-c4ccc(O)cc4)oc3c2)[C@H](O)[C@@H](O)[C@@H]1O` [Compound 5, apigenin-7-O-β-D-glucuronide], in assay [1] (setting [6]), the IC50 is more than 97 µM. Further, the “Sorbitol content” value in assay [3] (setting [7]) is recorded as 0.29 ± 0.01^b mg/g. The inhibition at 5 µg/mL in assay [3] (setting [8]) is 80.3 ± 2.78%.

On to `O=C(O)[C@H]1O[C@@H](Oc2cc(O)c3c(=O)cc(-c4ccc(O)c(O)c4)oc3c2)[C@H](O)[C@@H](O)[C@@H]1O` [Compound 6, luteolin-7-O-β-D-glucuronide], for which the “Sorbitol content” value in assay [3] (setting [7]) was 0.12 ± 0.01^a mg/g. Further, the inhibition at 5 µg/mL in assay [3] (setting [8]) is 91.8 ± 6.74%.

Molecule `O=C(C=Cc1ccc(O)c(O)c1)OC1CC(O)(C(=O)O)CC(OC(=O)C=Cc2ccc(O)c(O)c2)C1O` (stereo not drawn) [Compound 7, 3,5-O-di-caffeoylquinic acid] gave an IC50 in assay [1] (setting [6]) of more than 97 µM. The inhibition at 5 µg/mL in assay [3] (Rattus norvegicus) stood at 86.4 ± 4.28%. The “Sorbitol content” value in assay [3] (setting [7]) is recorded as 0.20 ± 0.01^a mg/g.

As for `O=c1cc(-c2ccc(O)cc2)oc2cc(O)c(O)c(O)c12` [Compound 8, 6-hydroxyapigenin], in assay [5], the IC50 was more than 28 µM and the “IC50 RLAR” value was “inactive; also recorded: did not show inhibitory activities”. In assay [1] (setting [6]), the IC50 is more than 97 µM and the “IC50 AGEs” value was “did not show inhibitory activities”. Besides, in assay [2] (NI: no inhibition), the IC50 was more than 208 µM and the “IC50 DPPH” value is “almost no effect”.

On to `O=c1cc(-c2ccc(O)cc2)oc2cc(O)cc(O)c12` [Compound 9, apigenin], for which, in assay [1] (setting [6]), the IC50 is more than 97 µM. Moreover, in assay [3] (setting [7]), the “Sorbitol content” value is reported as 0.19 ± 0.01^a mg/g. In addition, in assay [3] (setting [8]), the inhibition at 5 µg/mL was 87.1 ± 4.48%.

With `O=c1cc(-c2ccc(O)c(O)c2)oc2cc(O)cc(O)c12` [Compound 10, luteolin], in assay [3] (setting [7]), the “Sorbitol content” value is 0.12 ± 0.01^a mg/g. Besides, the inhibition at 5 µg/mL in assay [3] (setting [8]) amounted to 91.8 ± 6.87%.

As for `O=C1O[C@H]([C@@H](O)CO)C(O)=C1O` [L-Ascorbic acid, reference compound], the “IC50 DPPH” value in assay [2] (three independent experiments in duplicate) was 6.60 ± 0.33^a μg/mL.

`O=c1c(O)c(-c2ccc(O)c(O)c2)oc2cc(O)cc(O)c12` [Quercetin, quercetin, reference compound]: the “Sorbitol content” value in assay [3] (setting [7]) is reported as 0.21 ± 0.01^a mg/g. In addition, the inhibition at 5 µg/mL in assay [3] (setting [8]) came out at 85.7 ± 3.23%.

As for `O=c1cc(-c2ccc(O)c(O)c2)oc2cc(O)cc(O[C@@H]3O[C@H](CO)[C@@H](O)[C@H](O)[C@H]3O)c12` [luteolin-5-O-β-D-glucopyranoside, reference compound], the “Inhibitory activity on RLAR relative to its precursor (luteolin)” value in assay [4] (isolated from Cirsium maackii) is recorded as approximately 1.58 times.
